# Experimental data as given in patent publication US6652890B2, “Tea catechins as cancer specific proliferation inhibitors” (Purdue Research Foundation, priority 1999, dated 2003).
# pEC50, pIC50: −log10 of the molar value. “Also recorded” adds a separate entry of the source. Where two headings read alike, the source gives them in different places.
# Experiments:
# CHO cells = test: Growth of CHO cells; assay type: cell-based; conditions: EGCg
# [1] = biological target: T1, NADH oxidase of plasma membranes from MCF-10A human mammary epithelial (non-cancer) cells (Homo sapiens, UniProt Q8TC92); test: NADH oxidase activity of isolated plasma membrane vesicles; assay type: biochemical; conditions: EGCg dose-response, FIG. 2A
# T1 construct: endogenous in cells; host or cells: MCF-10A plasma membrane vesicles
# T1 sequence (Q8TC92 1-643): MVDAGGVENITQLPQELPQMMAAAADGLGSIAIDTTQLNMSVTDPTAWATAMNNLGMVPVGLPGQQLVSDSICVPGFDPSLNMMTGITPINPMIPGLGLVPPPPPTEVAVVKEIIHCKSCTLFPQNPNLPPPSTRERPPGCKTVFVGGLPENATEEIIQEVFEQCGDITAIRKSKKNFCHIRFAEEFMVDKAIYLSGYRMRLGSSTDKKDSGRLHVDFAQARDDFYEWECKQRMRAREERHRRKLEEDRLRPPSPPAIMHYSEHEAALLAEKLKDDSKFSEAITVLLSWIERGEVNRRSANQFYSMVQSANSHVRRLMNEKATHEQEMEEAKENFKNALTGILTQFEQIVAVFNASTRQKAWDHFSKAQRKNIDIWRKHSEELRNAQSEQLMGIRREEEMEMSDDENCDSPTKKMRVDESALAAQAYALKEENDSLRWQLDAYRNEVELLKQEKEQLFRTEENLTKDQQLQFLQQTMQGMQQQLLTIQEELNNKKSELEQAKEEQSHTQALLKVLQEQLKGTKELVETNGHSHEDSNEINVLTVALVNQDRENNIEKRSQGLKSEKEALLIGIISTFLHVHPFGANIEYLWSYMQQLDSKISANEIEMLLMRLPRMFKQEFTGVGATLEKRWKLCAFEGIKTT
# Method: Cultured cells were collected by centrifugation for 6-15 min at 175-1000×g. The cell pellets were resuspended in 0.2 mM EDTA in 1 mM NaHCO3 in an approximate ratio of 1 ml per 10^8 cells and incubated on ice for 10-30 min to swell the cells. […] To estimate breakage, the cells were monitored by light microscopy before and after homogenization. At least 90% cell breakage without breakage of nuclei was achieved routinely.
# The homogenates were centrifuged for 10 min at 175×g to remove unbroken cells and nuclei and the supernatant was centrifuged a second time at 1.4×10^6 g·min (e.g., 1 h at 23,500×g) to prepare a plasma membrane-enriched microsome fraction. The supernatant was discarded and the pellets were resuspended in 0.2 M potassium phosphate buffer in a ratio of ˜1 ml per pellet from 5×10^8 cells. […] The purity of the plasma membrane was determined to be >90% by electron microscope morphometry. […]
# NADH oxidase activity was determined as the disappearance of NADH measured at 340 nm in a reaction mixture containing 25 mM Tris-Mes buffer (pH 7.2), 1 mM KCN to inhibit low levels of mitochondrial oxidase activity, and […] at 37° C. with stirring. Activity was measured using a Hitachi U3210 or SLM Aminco DW2000 spectrophotometer with continuous recording over two intervals of 5 min each. […]
# tNOX = test: Inhibition of tNOX activity of sera pooled from patients with cancer; assay type: biochemical, human
# Method: NADH oxidase activity was determined as the disappearance of NADH measured at 340 nm in a reaction mixture containing 25 mM Tris-Mes buffer (pH 7.2), 1 mM KCN to inhibit low levels of mitochondrial oxidase activity, and […] at 37° C. with stirring. Activity was measured using a Hitachi U3210 or SLM Aminco DW2000 spectrophotometer with continuous recording over two intervals of 5 min each. A millimolar extinction coefficient of 6.22 was used to determine specific activity.
# Authentic EGCg (Sigma) was used as the standard.
# All chemicals were from Sigma (St. Louis, Mo.) unless otherwise specified. EGF was from mouse, culture grade, from Upstate Biotechnology Inc. (Lake Placid, N.Y.). Tea infusions were prepared by sequential steeping of ca. 2-g bags of tea (Lipton) in 10 ml of water for 10 min each. At the end of the infusion, bags were pressed to remove liquid.
# [2] = test system: HeLa (human cervical carcinoma) cells; test: Effect on intact cells in culture (growth, morphology, DAPI); assay type: cell-based; conditions: for pIC50: read-out: EGCg concentration for 50% growth arrest, FIG. 8
# Method: HeLa (ATCC CCL2) cells were grown in 175 cm^2 flasks in Minimal Essential Medium (Gibco), pH 7.4, at 37° C. with 10% bovine calf serum (heat-inactivated), plus 50 mg/l gentamycin sulfate (Sigma). […] The coverslips were rinsed and the cells fixed in methanol followed by addition of fluorescent dye 4′,6-diamidino-2-phenylindole (DAPI) as described (Wolvetang et al., 1994, FEBS Lett. 339:40-44). Cells were observed and photographed at a primary magnification of 400×. HeLa (ATCC CCL2) cells were grown in 150 cm^2 flasks in Minimal Essential Medium (Gibco), pH 7.4, at 37° C. with 10% bovine calf serum (heat-inactivated), plus 50 mg/l gentamicin sulfate (Sigma).
# [3] = test system: 4T1 metastatic mouse mammary cancer cells; test: Killing of 4T1 metastatic mouse mammary cancer cells in culture; assay type: cell-based; conditions: EGCg 10^−7 M, EC 10^−4 M, alone or combined
# [4] = 10^−6 M EGCg twice daily for 96 h
substance,measurement,setting,value
(−) - epigallocatechin gallate [EGCg],Growth of CHO cells,CHO cells,much less affected
same,Effect on NADH oxidase activity,[1],without effect
same,pEC50,tNOX,5.70
same,EGCg,tNOX; EGCg content at the EC50,1 µg/mL
same,Fate of treated cells,"[2]; 10 μM EGCg added at t=0, 96 h, FIG. 4",did not recover and died; also recorded: stopped growing and died
same,Reduction of cell diameter,[2]; [4],about 25%
same,Reduction of cell number,[2]; [4],about 25%
same,Reduction of cell volume,[2]; [4],50%
same,Response of the cell line,"[2]; 10^−6 M EGCg, 72 h",no response
same,Condensed chromatin (DAPI staining),"[2]; 10 or 50 μM EGCg, 96 h, FIG. 5",characteristic of apoptosis
same,Growth of HeLa cells,[2]; EGCg,almost completely inhibited
same,pIC50,"[2]; 72 h, in the absence of EC",5.00
same,pIC50,"[2]; 72 h, in the presence of 10^−4 M EC",7.00
same,Increase in cell number cm^−2 over 72 h · 10^2,[3],520 cm^−2 · 10^2
